Tests used:
[1] = design: species or system CD-1 mouse; details: mouse, in vivo
Procedure: (3) Micronucleus test on mice.
test on mice HBS-107 was given orally at a dosage of
was prepared after 24, 48 and 72 hours

[2] = rat, in vivo
[3] = rabbit, in vivo

Q: For “polyacryloyloxyethyl-N,N-dimethylbenzyl ammonium salt [Example 1]”, which “induction of micronucleus formation” value [1] is on record?
A: No induction

Q: And the “urine volume, Na^+ and Cl^-” value [2]?
A: Significant reduction

Q: What about the “irritation (in words)” value [3] of the same substance?
A: not strong

From patent US5800809A, “Non-crosslinked acrylic polymers and non-crosslinked anion exchange resins” (priority 1992, dated 1998)
